# Results taken from ChEMBL document CHEMBL1938241, “Design, synthesis, and activity evaluation of broad-spectrum small-molecule inhibitors of anti-apoptotic Bcl-2 family proteins: characteristics of broad-spectrum protein binding and its effects on anti-tumor activity” (Bioorg Med Chem Lett, 2012).
# Assays:
# [1] = target: Bcl-2-like protein 1 (Homo sapiens, UniProt Q07817); assay: Binding affinity to Bcl-xL by competitive fluorescence polarization assay
# [2] = target: Apoptosis regulator Bcl-2 (Homo sapiens, UniProt P10415); assay: Binding affinity to Bcl-2 by competitive fluorescence polarization assay
# [3] = target: Induced myeloid leukemia cell differentiation protein Mcl-1 (Homo sapiens, UniProt Q07820); assay: Binding affinity to Mcl-1 by competitive fluorescence polarization assay
# [4] = test system: HCT-116; assay: Cytotoxicity against human HCT116 cells expressing Bcl-xL, Bcl-2 and Mcl-1 after 72 hrs by MTT assay; assay type: functional, cell-based; settings: HCT-116, 72 h
# [5] = test system: Raji; assay: Cytotoxicity against human Raji cells expressing Bcl-xL, Bcl-2 and Mcl-1 after 72 hrs by MTT assay; assay type: functional, cell-based
# [6] = test system: MDA-MB-435; assay: Cytotoxicity against human MDA-MB-435 cells expressing Bcl-xL, Bcl-2 and Mcl-1 after 72 hrs by MTT assay; assay type: functional, cell-based; settings: MDA-MB-435, 72 h
# [7] = test system: Raji; assay: Cytotoxicity against human Raji cells expressing Bcl-xL, Bcl-2 and Mcl-1 at 100 ug/ml after 72 hrs by MTT assay relative to control; assay type: functional; settings: read-out: GI
# [8] = test system: MDA-MB-435; assay: Cytotoxicity against human MDA-MB-435 cells expressing Bcl-xL, Bcl-2 and Mcl-1 at 100 ug/ml after 72 hrs by MTT assay relative to control; assay type: functional; settings: MDA-MB-435, 72 h, read-out: GI
# Sequence of Bcl-2-like protein 1 (Q07817 whole entry): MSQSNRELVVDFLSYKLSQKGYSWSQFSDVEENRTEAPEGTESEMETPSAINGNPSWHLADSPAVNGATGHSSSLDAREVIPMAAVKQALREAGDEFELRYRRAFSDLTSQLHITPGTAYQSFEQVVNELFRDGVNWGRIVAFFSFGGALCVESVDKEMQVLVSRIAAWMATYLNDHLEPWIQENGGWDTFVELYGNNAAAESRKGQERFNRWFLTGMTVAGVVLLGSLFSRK
# Sequence of Apoptosis regulator Bcl-2 (P10415 whole entry): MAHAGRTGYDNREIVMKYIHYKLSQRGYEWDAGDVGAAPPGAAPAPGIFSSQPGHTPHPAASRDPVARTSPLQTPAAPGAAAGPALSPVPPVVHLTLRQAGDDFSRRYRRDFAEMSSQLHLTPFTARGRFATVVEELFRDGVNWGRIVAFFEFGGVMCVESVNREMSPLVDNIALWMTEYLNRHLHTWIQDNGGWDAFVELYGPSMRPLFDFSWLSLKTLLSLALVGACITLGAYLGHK
# Sequence of Induced myeloid leukemia cell differentiation protein Mcl-1 (Q07820 whole entry): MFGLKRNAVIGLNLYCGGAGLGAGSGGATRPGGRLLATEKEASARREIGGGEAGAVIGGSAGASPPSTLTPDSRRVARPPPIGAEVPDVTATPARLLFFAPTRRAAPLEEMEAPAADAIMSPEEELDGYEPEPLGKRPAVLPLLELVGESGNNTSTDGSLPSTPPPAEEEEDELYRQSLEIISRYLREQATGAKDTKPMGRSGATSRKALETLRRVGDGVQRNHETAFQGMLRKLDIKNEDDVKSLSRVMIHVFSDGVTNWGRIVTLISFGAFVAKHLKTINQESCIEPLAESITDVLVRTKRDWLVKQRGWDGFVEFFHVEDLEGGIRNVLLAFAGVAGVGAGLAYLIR
SMILES,Ki [1] [µM],Ki [2] [µM],Ki [3] [µM],IC50 [4] [µM],IC50 [5] [µM],IC50 [6] [µM],inhibition of growth at 100 µg/mL [7] [%],inhibition of growth at 100 µg/mL [8] [%]
COc1ccc(C(=O)Nc2ccc(C(=O)NS(=O)(=O)c3ccc(NCCSc4ccccc4)c([N+](=O)[O-])c3)cc2)cc1,1.27,0.8,3.11,14.6,22.9,36.1,,
O=C(Nc1ccc(C(=O)NS(=O)(=O)c2ccc(NCCSc3ccccc3)c([N+](=O)[O-])c2)cc1)c1cccc(Cl)c1,,,,33.1,37.5,46.7,,
O=C(Nc1ccc(C(=O)NS(=O)(=O)c2ccc(NCCSc3ccccc3)c([N+](=O)[O-])c2)cc1)c1ccc(Cl)cc1,,,,43.4,37.5,49.9,,
O=C(Nc1ccc(C(=O)NS(=O)(=O)c2ccc(NCCSc3ccccc3)c([N+](=O)[O-])c2)cc1)c1cccc(F)c1,2.08,1.4,3.09,> 168,39.4,59.5,,
O=C(NS(=O)(=O)c1ccc(NCCSc2ccccc2)c([N+](=O)[O-])c1)c1ccc(NC(=O)c2ccccc2Cl)cc1,,,,> 164,41.2,69.9,,
O=C(Nc1ccc(C(=O)NS(=O)(=O)c2ccc(NCCSc3ccccc3)c([N+](=O)[O-])c2)cc1)c1ccc(Br)cc1,1.5,0.76,4.1,10.5,35,39.5,,
CN(C)CC[C@H](CSc1ccccc1)Nc1ccc(S(=O)(=O)NC(=O)c2ccc(N3CCN(Cc4ccccc4-c4ccc(Cl)cc4)CC3)cc2)cc1[N+](=O)[O-] [ABT 737],,,,47.7,93.5,> 123,42.5,55.4
O=C(NS(=O)(=O)c1ccc(NCCSc2ccccc2)c([N+](=O)[O-])c1)c1ccc(NC(=O)c2ccccc2F)cc1,1.71,1.09,3.02,40,32.2,48.1,,
Cc1ccc(C(=O)Nc2ccc(C(=O)NS(=O)(=O)c3ccc(NCCSc4ccccc4)c([N+](=O)[O-])c3)cc2)cc1,,,,48.6,38.8,53,,
O=C(NS(=O)(=O)c1ccc(NCCSc2ccccc2)c([N+](=O)[O-])c1)c1ccc(NS(=O)(=O)c2ccccc2)cc1,2.29,15.2,7.22,163,> 163,> 163,,
Cc1cccc(C(=O)Nc2ccc(C(=O)NS(=O)(=O)c3ccc(NCCSc4ccccc4)c([N+](=O)[O-])c3)cc2)c1,,,,169,92.6,> 169,,
Cc1ccccc1C(=O)Nc1ccc(C(=O)NS(=O)(=O)c2ccc(NCCSc3ccccc3)c([N+](=O)[O-])c2)cc1,,,,161,38.8,47.6,,

# Now from value to compound, other results behind:
Ki [1] [µM],Ki [2] [µM],Ki [3] [µM],SMILES,IC50 [4] [µM],IC50 [5] [µM],IC50 [6] [µM],inhibition of growth at 100 µg/mL [7] [%],inhibition of growth at 100 µg/mL [8] [%]
2.51,1.67,4.16,O=C(Nc1ccc(C(=O)NS(=O)(=O)c2ccc(NCCSc3ccccc3)c([N+](=O)[O-])c2)cc1)c1ccccc1,136,39.8,59.9,,
3.91,3.52,3.11,CSCC[C@H](NC(C)=O)C(=O)Nc1ccc(C(=O)NS(=O)(=O)c2ccc(NCCSc3ccccc3)c([N+](=O)[O-])c2)cc1,,,,40.1,16
4.84,3.38,2.29,CC[C@H](C)[C@H](NC(C)=O)C(=O)Nc1ccc(C(=O)NS(=O)(=O)c2ccc(NCCSc3ccccc3)c([N+](=O)[O-])c2)cc1,,,,40.9,13.5
3.42,3.39,3.11,CC(=O)N[C@@H](Cc1ccccc1)C(=O)Nc1ccc(C(=O)NS(=O)(=O)c2ccc(NCCSc3ccccc3)c([N+](=O)[O-])c2)cc1,,,,26.8,36.6
6.45,0.83,4.03,CC(=O)N[C@@H](Cc1c[nH]c2ccccc12)C(=O)Nc1ccc(C(=O)NS(=O)(=O)c2ccc(NCCSc3ccccc3)c([N+](=O)[O-])c2)cc1,,,,31.8,9.36
5.82,3.78,1.8,CC(=O)N[C@@H](CC(C)C)C(=O)Nc1ccc(C(=O)NS(=O)(=O)c2ccc(NCCSc3ccccc3)c([N+](=O)[O-])c2)cc1,,,,58.3,25.6
1.94,0.93,2.54,O=C(Nc1ccc(C(=O)NS(=O)(=O)c2ccc(NCCSc3ccccc3)c([N+](=O)[O-])c2)cc1)c1ccc(F)cc1,78.9,38.6,57.5,,
16.4,9.49,3.27,CC(=O)N[C@H](C(=O)Nc1ccc(C(=O)NS(=O)(=O)c2ccc(NCCSc3ccccc3)c([N+](=O)[O-])c2)cc1)C(C)C,,,,8.85,6.33
